Values quoted from earlier work in patent publication US20050118256A1, “Extended release alpha-2 agonist pharmaceutical dosage forms” (priority 2003, published 2005).
Where a name gives a salt, the structure may show the parent alone.

Tested on: skeletal muscle fibers, neuromuscular junction, spinal reflexes
Settings: animal models

Clc1ccc2nsnc2c1NC1=NCCN1 [Tizanidine, 5-chloro-4-(2-imidazolin-2-ylamino)-2,1,3-benzothiodiazole hydrochloride]
effect on monosynaptic spinal reflexes: no major effect
effect on skeletal muscle fibers or the neuromuscular junction: no direct effect
